From patent US20130011855A1, “Methods for Determining Aged Based Accumulation of Senescent Cells Using Senescense Specific DNA Damage Markers” (priority 2008, published 2013)

Key:
[1] = tested on: 53BP1 foci in hepatocytes; assay: 53BP1 foci immunolocalization in hepatocytes of frozen liver sections; assay type: in vivo, mice; conditions: by 2.5 days after exposure
Protocol: Eight to eleven-day-old F1 mice from C57BL/6, obtained from the National Institute of Aging, Aged Rodent Colonies (Bethesda, Md.), were injected intraperitoneally with AAT (Sigma-Aldrich; St. Louis, Mo.) at 2 mg/kg body weight in corn oil. […] Control gender-matched litter mates were injected with corn oil or PBS. […] All procedures were done within the guidelines of the Animal Research Committee at the University of Illinois at Chicago and the “Principles of laboratory animal care” (NIH publication No. 86-23, revised 1985).
To detect DNA damage foci, frozen 5-micron liver sections were rapidly transferred to slides after sectioning, then immediately fixed in 2% paraformaldehyde PBS for 20 min, and then prepared following standard protocols. […] The specificity was verified by blockage with oligopeptides bearing the antigenic sequences. […] Foci-associated nuclei and total nuclei were counted using Image Pro Plus software (MediaCybernetics, Bethesda, Md.). Three to four mice were used for each time point and 300-500 nuclei were counted for each subject. Relative fluorescence intensity of foci in images was quantitated using the density measurement of the Image Pro Plus software with subtraction of local background levels. Four to seven mice were studied per time point with 8 to 18 53BP1/phospho ATM foci scored per mouse. […]

primary hepatocytes [2] = assay: SA β Gal assay on hepatocytes isolated from exposed mice; assay type: cell-based; conditions: hepatocytes from exposed mice in primary culture
Protocol: (§1) FIG. 5A Collagenase perfusion was used to isolate hepatocytes from juvenile mice exposed 3 weeks previously to AAT. Twenty-four hours prior to fixation, cells were incubated with [3H]thymidine to allow the quantitation of the S phase index after processing for autoradiography. Shown are the means plus the (standard deviations) S.D. *P<0.002 versus the controls. FIG. 5B Cells isolated as described above from mice exposed, or not exposed, to AAT were subjected to the SA-β-Gal assay after fixation. At least 100 cells were counted on each plate from 3 to 5 control mice and 5 to 6 AAT exposed mice depending on the time point. Shown are the means plus S.D. *P<0.05 versus the controls. FIG. 5C Shown is a representative bright field image of primary hepatocytes 3 days after culture. Arrows indicate the blue, peri-nuclear stained, SA β Gal-positive cells. To reduce background [3H]thymidine detection was not done in this experiment. The phase contrast image below allows better visualization of the cells, original magnification 100×. […]
DNA damage repair proteins such as Chk2 that are active in DDR are not active during senesce. […] There was no enrichment of activated phospho p53 (S15) or Chk2 (T68), while phospho ATM (S1981) positive cells were detected but the foci were of low intensity (FIG. 3, Table 1, data not shown). […]

p53 (S 15) = assay: Phospho p53 (S15) immunostaining of liver sections; assay type: in vivo, mice; conditions: baseline or near baseline levels by 3-7 weeks post exposure
Protocol: (§2) Eight to eleven-day-old F1 mice from C57BL/6, obtained from the National Institute of Aging, Aged Rodent Colonies (Bethesda, Md.), were injected intraperitoneally with AAT (Sigma-Aldrich; St. Louis, Mo.) at 2 mg/kg body weight in corn oil. […] Control gender-matched litter mates were injected with corn oil or PBS. […] Female C57BL/6 mice (4- and 22-month-old) were allowed to acclimate at least 1 week prior to usage. All procedures were done within the guidelines of the Animal Research Committee at the University of Illinois at Chicago and the “Principles of laboratory animal care” (NIH publication No. 86-23, revised 1985).
(§3) To detect DNA damage foci, frozen 5-micron liver sections were rapidly transferred to slides after sectioning, then immediately fixed in 2% paraformaldehyde PBS for 20 min, and then prepared following standard protocols. […] Foci-associated nuclei and total nuclei were counted using Image Pro Plus software (MediaCybernetics, Bethesda, Md.). Three to four mice were used for each time point and 300-500 nuclei were counted for each subject. Relative fluorescence intensity of foci in images was quantitated using the density measurement of the Image Pro Plus software with subtraction of local background levels. Four to seven mice were studied per time point with 8 to 18 53BP1/phospho ATM foci scored per mouse. […]

primary hepatocytes [3] = assay: S phase index by [3H]thymidine labeling of hepatocytes isolated from exposed mice; assay type: cell-based; conditions: hepatocytes from juvenile mice exposed 3 weeks previously
Protocol: as §1, with “100×. FIG. 5D Hepatocytes isolated from adult 4-month-old and 22-month-old were cultured and assayed for S phase index as described. Shown are means plus S.D. There is a lag in S phase entry in cells from these adult mice. *P<0.02 and **P<0.004. FIG. 5E Hepatocytes from young adult and aged adult mice were cultured as described and then subjected to the SA β Gal assay.” for “100×.”

ATM p (S1987) = assay: Relative immunofluorescent intensity of phospho ATM foci in frozen liver sections; assay type: in vivo, mice; conditions: for Relative immunofluorescent intensity of foci for ATM p (S1987): single i.p. injection to juvenile mice, liver hepatocytes; for signal strength of phospho ATM in 53BP1/phospho ATM foci: by 7 weeks after exposure
Protocol: as §2
To detect DNA damage foci, frozen 5-micron liver sections were rapidly transferred to slides after sectioning, then immediately fixed in 2% paraformaldehyde PBS for 20 min, and then prepared following standard protocols. […] The specificity was verified by blockage with oligopeptides bearing the antigenic sequences. Antiphospho ATM (S1981) (Rockland Immunochemicals, Gilbertsville, Pa.; 1:800) was a mouse antibody. Anti-rabbit and anti-mouse secondary antibodies conjugated to Cy-3 were obtained from Jackson Immunoresearch (West Grove, Pa.). Prior to mouse primary antibody application, tissues were first blocked with 1% goat anti-mouse FAB (Jackson Immunoresearch) followed by incubation with 4% BSA. Slides were counterstained with 0.2 ug/ml 4′,6-diamidino-2-phenylindole (DAPI) for 2 min prior to mounting in mowiol (Calbiochem; San Diego, Calif.) with 2% 1,4-diazobicyclo[2,2,2]octane (Sigma-Aldrich). Fluorescent 400× images were typically collected immediately after the assay. Foci-associated nuclei and total nuclei were counted using Image Pro Plus software (MediaCybernetics, Bethesda, Md.). Three to four mice were used for each time point and 300-500 nuclei were counted for each subject. Relative fluorescence intensity of foci in images was quantitated using the density measurement of the Image Pro Plus software with subtraction of local background levels. Four to seven mice were studied per time point with 8 to 18 53BP1/phospho ATM foci scored per mouse. Minimally exposed images were used. The student's t-test was used for statistical comparisons for these and other experiments. For double labeling with anti-phospho ATM (S1981) and anti-53BP1 antibodies, sections were prepared as described above, first labeling with the anti-phospho-ATM (S1981) and Cy-3 secondary antibody as above, then incubated with 4% BSA, followed by anti-53BP1 and then by Alexa 488 conjugated goat anti-rabbit antibody (Invitrogen; Carlsbad, Calif.; 1:200). All secondary antibodies were pre-adsorbed to reduce cross-reactivity as verified by negative control experiments.

[4] = tested on: 53BP1/phospho ATM (S1981) foci in hepatocytes; assay: Hepatocytes positive for 53BP1/phospho ATM co-localized foci in liver sections; assay type: in vivo, mice
Protocol: as §2, §3

phospho Chk2 (T68) = assay: Phospho Chk2 (T68) nuclear immunostaining of liver sections; assay type: in vivo, mice
Protocol: as §2, §3

ATM/ATR p (S/TQ) = assay: Relative immunofluorescent intensity of ATM/ATR p (S/TQ) foci in frozen liver sections; assay type: in vivo; conditions: single i.p. injection to juvenile mice, liver hepatocytes
Protocol: as §2, §3

SMILES	53BP1 foci in hepatocytes [1]	SA β Gal staining of isolated hepatocytes (primary hepatocytes [2])	activation of p53 (S 15) over time (p53 (S 15))	S phase entry of isolated hepatocytes (primary hepatocytes [3])	Relative immunofluorescent intensity of foci for ATM p (S1987) (ATM p (S1987); 3 Wk post exposure)	Relative immunofluorescent intensity of foci for ATM p (S1987) (ATM p (S1987); 7 Wk post exposure)	signal strength of phospho ATM in 53BP1/phospho ATM foci (ATM p (S1987))	nuclear foci containing both 53BP1 and phospho ATM ([4]; 1 and 3 weeks after genotoxin exposure)	cells with 53BP1/phospho ATM foci ([4]; 7 weeks after exposure, versus unexposed control mice)	phospho Chk2 positive nuclei (phospho Chk2 (T68); 0.5 and 1 week after exposure)	activation of Chk2 (T68) over time (phospho Chk2 (T68); baseline or near baseline levels by 3-7 weeks post exposure)	Relative immunofluorescent intensity of foci for ATM/ATR p (S/TQ) (ATM/ATR p (S/TQ); 3 Wk post exposure)	Relative immunofluorescent intensity of foci for ATM/ATR p (S/TQ) (ATM/ATR p (S/TQ); 7 Wk post exposure)
Cc1cc(N=Nc2ccccc2C)ccc1N [AAT, aminoazotoluene]	Appearance of 53BP1 foci	positive for SA β Gal	activated only transiently	defective for S phase entry	100 ± 4.50	50 ± 9.80^D	significant decreases in the signal strength of phospho ATM	elevated levels of nuclear foci	still present at higher levels than in the unexposed control mice	high levels of nuclear staining	activated only transiently	100 ± 20.0	50 ± 17.5^A
CO[C@@]12[C@H](COC(N)=O)C3=C(C(=O)C(C)=C(N)C3=O)N1C[C@@H]1N[C@@H]12 [mitomycin C]							significant decreases in the signal strength of phospho ATM						
